Source: patent US12139492B2 (Endotarget Inc., priority 2021, dated 2024)
Like-named read-outs stand apart in the source and are kept apart here.

Assays:
[1] = system: Mino cells; test: Antiproliferative effect, MTS cell viability assay, Mino cells; format: cell-based; conditions: Homo sapiens, Mino mantle cell lymphoma cells, read-out: IC50 (anti-proliferation) Mino cells
Experimental: (§1) Antiproliferative effect of the exemplary compounds was assessed in B-cell malignancy models.
(§2) To assess the effect of the exemplary compounds on cell viability in B-cell malignancy models by degradation of BTK protein, Mino and JeKo-1 cells were treated with varying concentrations of Ibrutinib (0, 0.001, 0.01, 0.1, 1, 10 μM). Under these conditions, cell viability was determined by an MTS assay. Cytotoxicity was assayed by the determination of reduced tetrazolium (formazan) created by metabolically active cells as detected at 490 nm absorbance using a microplate reader (BMG Labtech, Cary, NC, USA).
(§3) The exemplary compounds attenuated the viability of Mino and JeKo-1 cells in a concentration-dependent manner at 72 h post treatment. Results are shown in Table 1 for each exemplary compound.

[2] = system: JeKo-1 cells; test: Antiproliferative effect, MTS cell viability assay, JeKo-1 cells; format: cell-based; conditions: Homo sapiens; JeKo-1 mantle cell lymphoma cells; read-out: IC50 (anti-proliferation) JeKO-1 cells
Experimental: as §1, §2, §3

[3] = molecular target: BTK (Homo sapiens, UniProt Q06187); test: Degradation of BTK protein in Namalwa cells (Western blot; DC50, Dmax); conditions: for DC50: cell line not given
Chain of BTK (Q06187 whole entry): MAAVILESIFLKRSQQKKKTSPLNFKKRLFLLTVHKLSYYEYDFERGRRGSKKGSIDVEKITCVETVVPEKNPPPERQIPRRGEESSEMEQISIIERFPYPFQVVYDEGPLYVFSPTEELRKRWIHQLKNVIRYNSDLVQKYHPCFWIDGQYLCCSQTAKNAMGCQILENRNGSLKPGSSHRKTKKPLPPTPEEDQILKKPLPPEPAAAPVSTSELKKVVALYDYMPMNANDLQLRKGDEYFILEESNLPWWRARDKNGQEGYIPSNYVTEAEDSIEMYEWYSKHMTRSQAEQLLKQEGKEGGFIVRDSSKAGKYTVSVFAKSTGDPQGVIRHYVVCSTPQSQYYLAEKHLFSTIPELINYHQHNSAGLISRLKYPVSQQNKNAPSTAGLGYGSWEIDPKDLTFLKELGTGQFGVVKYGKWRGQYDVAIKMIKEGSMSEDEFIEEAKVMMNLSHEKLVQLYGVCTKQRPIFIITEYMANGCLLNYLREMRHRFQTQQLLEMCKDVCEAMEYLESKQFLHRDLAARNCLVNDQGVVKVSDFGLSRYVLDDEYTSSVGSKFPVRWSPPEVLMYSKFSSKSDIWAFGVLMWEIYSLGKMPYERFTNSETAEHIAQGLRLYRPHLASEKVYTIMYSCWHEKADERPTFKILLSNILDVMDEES

[4] = read-out: DC50 (BTK degradation), concentration giving 50% reduction of BTK expression level
[5] = read-out: Dmax (BTK degradation)

Dmax [3] | DC50 ([3]; BTK degradation) | DC50 [3, 4] | Dmax [3, 5] | degradation of BTK protein ([3]; Namalwa B lymphocyte cells, various concentrations, 24 hours, Western blot) | Structure (SMILES) | IC50 ([1]; MINO) | IC50 [2] | IC50 [1]
 |  | < 10 nM | > 90% |  | Nc1ncnc2c1c(-c1ccc(Oc3ccccc3)cc1)nn2C1CCN(C(=O)C2CN(C3CCN(c4ccc5c(c4)CN(C4CCC(=O)NC4=O)C5=O)CC3)C2)CC1 (stereo not drawn) [Compound 510, 3-(5-(4-(3-(4-(4-amino-3-(4-phenoxyphenyl)-1H-pyrazolo[3,4-d]pyrimidin-1-yl)piperidine-1-carbonyl)azetidin-1-yl)piperidin-1-yl)-1-oxoisoindolin-2-yl)piperidine-2,6-dione] | < 1000 nM | < 1000 nM | 
 |  | < 10 nM | > 90% |  | Nc1ncnc2c1c(-c1ccc(Oc3ccccc3)cc1)nn2C1CCN(CCN2CCC(CSc3ccc4c(c3)CN(C3CCC(=O)NC3=O)C4=O)C2)CC1 (stereo not drawn) [Compound 474, 3-(5-(((1-(2-(4-(4-amino-3-(4-phenoxyphenyl)-1H-pyrazolo[3,4-d]pyrimidin-1-yl)piperidin-1-yl)ethyl)pyrrolidin-3-yl)methyl)thio)-1-oxoisoindolin-2-yl)piperidine-2,6-dione] | 1000 to 10000 nM | 1000 to 10000 nM | 
 |  | < 10 nM | > 90% |  | Nc1ncnc2c1c(-c1ccc(Oc3ccccc3)cc1)nn2C1CCN(CCN2CCC(CN3CCN(c4ccc(N5CCC(=O)NC5=O)cc4)CC3)C2)CC1 (stereo not drawn) [Compound 549, 1-(4-(4-((1-(2-(4-(4-amino-3-(4-phenoxyphenyl)-1H-pyrazolo[3,4-d]pyrimidin-1-yl)piperidin-1-yl)ethyl)pyrrolidin-3-yl)methyl)piperazin-1-yl)phenyl)dihydropyrimidine-2,4(1H,3H)-dione] | < 1000 nM | < 1000 nM | 
 |  | < 10 nM | > 90% |  | NC1=NC=NC2C1C(c1ccc(Oc3ccccc3)cc1)=NN2C1CCN(C(=O)N2CC(C3CN(c4ccc5c(c4)CN([C@@H]4CCC(=O)NC4=O)C5=O)C3)C2)CC1 (stereo partly drawn) [Compound 496, (3R)-3-(5-(1′-(4-(4-amino-3-(4-phenoxyphenyl)-3a,7a-dihydro-1H-pyrazolo[3,4-d]pyrimidin-1-yl)piperidine-1-carbonyl)-[3,3′-biazetidin]-1-yl)-1-oxoisoindolin-2-yl)piperidine-2,6-dione] | < 1000 nM | < 1000 nM | 
 |  | < 10 nM | > 75% |  | Nc1ncnc2c1c(-c1ccc(Oc3ccccc3)cc1)nn2[C@@H]1CCCN(C2CCN(CC3CCN(c4ccc(C(=O)NC5CCC(=O)NC5=O)cc4)CC3)CC2)C1 (stereo partly drawn) [Compound 516, 4-(4-(((R)-3-(4-amino-3-(4-phenoxyphenyl)-1H-pyrazolo[3,4-d]pyrimidin-1-yl)-[1,4′-bipiperidin]-1′-yl)methyl)piperidin-1-yl)-N-(2,6-dioxopiperidin-3-yl)benzamide] | 1000 to 10000 nM | < 1000 nM | 
 |  | < 10 nM | > 90% |  | NC1=NC=NC2C1C(c1ccc(Oc3ccccc3)cc1)=NN2[C@@H]1CCCN(C(=O)N2CC(C3CN(c4ccc5c(c4)CN(C4CCC(=O)NC4=O)C5=O)C3)C2)C1 (stereo partly drawn) [Compound 498, 3-(5-(1′-((3R)-3-(4-amino-3-(4-phenoxyphenyl)-3a,7a-dihydro-1H-pyrazolo[3,4-d]pyrimidin-1-yl)piperidin-1-carbonyl)-[3,3′-biazetidin]-1-yl)-1-oxoisoindolin-2-yl)piperidine-2,6-dione] | < 1000 nM | < 1000 nM | 

More lines, now with the values behind:

Structure (SMILES) | Dmax [3] | DC50 ([3]; BTK degradation) | DC50 [3, 4] | Dmax [3, 5] | degradation of BTK protein ([3]; Namalwa B lymphocyte cells, various concentrations, 24 hours, Western blot) | IC50 ([1]; MINO) | IC50 [2] | IC50 [1]
Nc1ncnc2c1c(-c1ccc(Oc3ccccc3)cc1)nn2C1CCN(C2CCN(C(=O)N3CCN(CCN4CCN(c5ccc6c(c5)CN(C5CCC(=O)NC5=O)C6=O)CC4)CC3)CC2)CC1 (stereo not drawn) [Compound 246, 3-(5-(4-(2-(4-(4-(4-amino-3-(4-phenoxyphenyl)-1H-pyrazolo[3,4-d]pyrimidin-1-yl)-[1,4′-bipiperidine]-1′-carbonyl)piperazin-1-yl)ethyl)piperazin-1-yl)-1-oxoisoindolin-2-yl)piperidine-2,6-dione] | > 75% | 10 to 50 nM |  |  |  | 1000 to 10000 nM | 1000 to 10000 nM | 
Nc1ncnc2c1c(-c1ccc(Oc3ccccc3)cc1)nn2C1CCN(CCN2CCC(CN3CCC(c4ccc(N5CCC(=O)NC5=O)cc4)CC3)CC2)CC1 [Compound 553, 1-(4-(1-((1-(2-(4-(4-amino-3-(4-phenoxyphenyl)-1H-pyrazolo[3,4-d]pyrimidin-1-yl)piperidin-1-yl)ethyl)piperidin-4-yl)methyl)piperidin-4-yl)phenyl)dihydropyrimidine-2,4(1H,3H)-dione] |  |  | < 10 nM | > 90% |  |  | < 1000 nM | < 1000 nM
NC(=O)c1c(-c2ccc(Oc3ccccc3)cc2)nn2c1NCC[C@H]2C1CCN(CC2CCN(CC3CCN(c4ccc5c(c4)C(=O)N(C4CCC(=O)NC4=O)C5=O)CC3)CC2)CC1 (stereo partly drawn) [Compound 329, (7S)-7-(1-((1-((1-(2-(2,6-dioxopiperidin-3-yl)-1,3-dioxoisoindolin-5-yl)piperidin-4-yl)methyl)piperidin-4-yl)methyl)piperidin-4-yl)-2-(4-phenoxyphenyl)-4,5,6,7-tetrahydropyrazolo[1,5-a]pyrimidine-3-carboxamide] | > 75% | 10 to 50 nM |  |  |  | > 10000 nM | > 10000 nM | 
Nc1ncnc2c1c(-c1ccc(Oc3ccccc3)cc1)nn2C1CCN(C2CCN(CCC3CCN(c4ccc5c(c4)CN(C4CCC(=O)NC4=O)C5=O)CC3)CC2)CC1 (stereo not drawn) [Compound 216, 3-(5-(4-(2-(4-(4-amino-3-(4-phenoxyphenyl)-1H-pyrazolo[3,4-d]pyrimidin-1-yl)-[1,4′-bipiperidin]-1′-yl)ethyl)piperidin-1-yl)-1-oxoisoindolin-2-yl)piperidine-2,6-dione] | > 75% | 10 to 50 nM |  |  |  | < 1000 nM | < 1000 nM | 
NC(=O)c1c(-c2ccc(Oc3ccccc3)cc2)nn2c1NCCC2C1CCN(C2CCN(C(=O)N3CCN(C4CCN(c5ccc6c(c5)C(=O)N(C5CCC(=O)NC5=O)C6=O)CC4)CC3)CC2)CC1 (stereo not drawn) [Compound 345, 7-(1′-(4-(1-(2-(2,6-dioxopiperidin-3-yl)-1,3-dioxoisoindolin-5-yl)piperidin-4-yl)piperazine-1-carbonyl)-[1,4′-bipiperidin]-4-yl)-2-(4-phenoxyphenyl)-4,5,6,7-tetrahydropyrazolo[1,5-a]pyrimidine-3-carboxamide] | > 90% | < 10 nM |  |  |  | 1000 to 10000 nM | 1000 to 10000 nM | 
Nc1ncnc2c1c(-c1ccc(Oc3ccccc3)cc1)nn2C1CCN(C2CCN(C(=O)N3CCC(N4CCC(c5ccc6c(c5)CN(C5CCC(=O)NC5=O)C6=O)CC4)CC3)CC2)CC1 (stereo not drawn) [Compound 236, 3-(5-(1′-(4-(4-amino-3-(4-phenoxyphenyl)-1H-pyrazolo[3,4-d]pyrimidin-1-yl)-[1,4′-bipiperidine]-1′-carbonyl)-[1,4′-bipiperidin]-4-yl)-1-oxoisoindolin-2-yl)piperidine-2,6-dione] | > 90% | 10 to 50 nM |  |  |  | 1000 to 10000 nM | 1000 to 10000 nM | 
Nc1ncnc2c1c(-c1ccc(Oc3ccccc3)cc1)nn2C1CCN(CC2CCN(/C=C\C(=O)CN3CCN(c4ccc5c(c4)CN(C4CCC(=O)NC4=O)C5=O)CC3)CC2)CC1 (stereo not drawn) [Compound 421, (Z)-3-(5-(4-(4-(4-((4-(4-amino-3-(4-phenoxyphenyl)-1H-pyrazolo[3,4-d]pyrimidin-1-yl)piperidin-1-yl)methyl)piperidin-1-yl)-2-oxobut-3-en-1-yl)piperazin-1-yl)-1-oxoisoindolin-2-yl)piperidine-2,6-dione] |  |  | < 10 nM | > 90% | dose-dependent degradation | 1000 to 10000 nM | 1000 to 10000 nM | 
NC(=O)c1c(-c2ccc(Oc3ccccc3)cc2)nn2c1NCC[C@H]2C1CCN(C2CCN(CCC3CCN(c4ccc5c(c4)C(=O)N(C4CCC(=O)NC4=O)C5=O)CC3)CC2)CC1 (stereo partly drawn) [Compound 325] | > 90% | 10 to 50 nM |  |  |  | 1000 to 10000 nM | 1000 to 10000 nM | 
Nc1ncnc2c1c(-c1ccc(Oc3ccccc3)cc1)nn2C1CCN(CC2CCN(CC3CCN(CC4CN(c5ccc6c(c5)CN(C5CCC(=O)NC5=O)C6=O)C4)CC3)CC2)CC1 (stereo not drawn) [Compound 432, 3-(5-(3-((4-((4-((4-(4-amino-3-(4-phenoxyphenyl)-1H-pyrazolo[3,4-d]pyrimidin-1-yl)piperidin-1-yl)methyl)piperidin-1-yl)methyl)piperidin-1-yl)methyl)azetidin-1-yl)-1-oxoisindolin-2-yl)piperidine-2,6-dione] |  |  | 10 to 50 nM | > 90% |  | < 1000 nM | < 1000 nM | 
NC(=O)c1c(-c2ccc(Oc3ccccc3)cc2)nn2c1NCCC2C1CCN(C(=O)N2CCN(CCN3CCN(c4ccc5c(c4)CN(C4CCC(=O)NC4=O)C5=O)CC3)CC2)CC1 (stereo not drawn) [Compound 282, 7-(1-(4-(2-(4-(2-(2,6-dioxopiperidin-3-yl)-1-oxoisoindolin-5-yl)piperazin-1-yl)ethyl)piperazine-1-carbonyl)piperidin-4-yl)-2-(4-phenoxyphenyl)-4,5,6,7-tetrahydropyrazolo[1,5-a]pyrimidine-3-carboxamide] | > 90% | 10 to 50 nM |  |  |  | 1000 to 10000 nM | > 10000 nM | 
Nc1ncnc2c1c(-c1ccc(Oc3ccccc3)cc1)nn2C1CCN(C2CCN(CCC3CCN(c4ccc5c(c4)C(=O)N(C4CCC(=O)NC4=O)C5=O)CC3)CC2)CC1 (stereo not drawn) [Compound 215, 5-(4-(2-(4-(4-amino-3-(4-phenoxyphenyl)-1H-pyrazolo[3,4-d]pyrimidin-1-yl)-[1,4′-bipiperidin]-1′-yl)ethyl)piperidin-1-yl)-2-(2,6-dioxopiperidin-3-yl)isoindoline-1,3-dione] | > 75% | 10 to 50 nM |  |  |  | 1000 to 10000 nM | < 1000 nM | 
